Measured values reported in the kinase profiling compilation of Christmann-Franck et al. (2016).

How the values were obtained:
Assay in all cases: radiometric filter-binding kinase assay
[1] = test system: AKT1 (human), P31749 [S473D]
AURKA (human) = AURKA (human) (UniProt O14965); conditions: compound 10.0 µM
BRSK1 (human) = BRSK1 (human) (UniProt Q8TDC3)
BRSK2 (human) = BRSK2 (human) (UniProt Q8IWQ3)
BTK (human) = BTK (human) (UniProt Q06187)
CaMK1 (human) = CaMK1 (human) (UniProt Q14012)
DYRK2 (human) = DYRK2 (human) (UniProt Q92630)
Sequence of DYRK2 (human) (Q92630 whole entry, looked up): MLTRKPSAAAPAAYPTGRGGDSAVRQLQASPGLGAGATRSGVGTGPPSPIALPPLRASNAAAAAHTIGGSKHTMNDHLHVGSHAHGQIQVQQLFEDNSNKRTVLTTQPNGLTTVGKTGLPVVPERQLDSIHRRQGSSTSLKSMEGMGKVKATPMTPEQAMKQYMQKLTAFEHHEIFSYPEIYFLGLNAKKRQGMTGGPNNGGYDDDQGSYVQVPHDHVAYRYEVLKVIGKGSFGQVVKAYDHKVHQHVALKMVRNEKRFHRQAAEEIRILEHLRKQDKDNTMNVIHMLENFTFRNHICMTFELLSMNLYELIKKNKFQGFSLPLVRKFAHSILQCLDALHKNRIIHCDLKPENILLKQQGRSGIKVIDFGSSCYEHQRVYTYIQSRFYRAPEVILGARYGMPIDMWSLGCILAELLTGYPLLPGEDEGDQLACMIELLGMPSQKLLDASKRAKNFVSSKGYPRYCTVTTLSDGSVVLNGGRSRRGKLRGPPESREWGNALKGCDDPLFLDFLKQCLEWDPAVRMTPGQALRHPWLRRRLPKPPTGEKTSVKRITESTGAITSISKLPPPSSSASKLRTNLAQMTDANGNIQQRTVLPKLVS

DYRK3 (human) = DYRK3 (human) (UniProt O43781)
EPHA2 (human) = EPHA2 (human) (UniProt P29317)
EPHB1 (human) = EPHB1 (human) (UniProt P54762)
Sequence of EPHB1 (human) (P54762 whole entry, looked up): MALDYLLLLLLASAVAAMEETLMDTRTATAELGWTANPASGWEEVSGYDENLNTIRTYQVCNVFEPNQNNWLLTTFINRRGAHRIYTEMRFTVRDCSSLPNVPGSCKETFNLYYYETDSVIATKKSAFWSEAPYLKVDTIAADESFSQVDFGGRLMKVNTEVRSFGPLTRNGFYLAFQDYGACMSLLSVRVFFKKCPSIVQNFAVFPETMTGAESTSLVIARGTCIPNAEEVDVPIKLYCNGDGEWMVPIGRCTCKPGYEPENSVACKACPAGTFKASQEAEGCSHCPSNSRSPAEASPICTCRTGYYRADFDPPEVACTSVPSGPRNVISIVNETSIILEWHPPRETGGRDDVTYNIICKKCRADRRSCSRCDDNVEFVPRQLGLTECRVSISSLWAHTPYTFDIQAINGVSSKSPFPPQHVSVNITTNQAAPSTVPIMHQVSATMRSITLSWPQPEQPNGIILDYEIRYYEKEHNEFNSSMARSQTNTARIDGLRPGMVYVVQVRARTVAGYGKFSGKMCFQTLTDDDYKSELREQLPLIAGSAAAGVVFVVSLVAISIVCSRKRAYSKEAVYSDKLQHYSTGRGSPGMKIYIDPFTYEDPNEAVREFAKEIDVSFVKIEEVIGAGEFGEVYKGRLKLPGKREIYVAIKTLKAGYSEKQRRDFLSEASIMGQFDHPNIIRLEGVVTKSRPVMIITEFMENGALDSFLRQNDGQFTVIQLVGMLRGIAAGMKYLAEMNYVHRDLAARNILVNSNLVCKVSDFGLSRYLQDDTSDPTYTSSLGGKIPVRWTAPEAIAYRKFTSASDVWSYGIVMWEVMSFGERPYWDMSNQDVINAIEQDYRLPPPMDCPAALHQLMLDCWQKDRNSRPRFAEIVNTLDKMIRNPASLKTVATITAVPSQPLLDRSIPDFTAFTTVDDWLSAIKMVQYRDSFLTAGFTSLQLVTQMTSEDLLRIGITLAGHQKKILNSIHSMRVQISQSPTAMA

EPHB2 (human) = EPHB2 (human) (UniProt P29323)
EPHB4 (human) = EPHB4 (human) (UniProt P54760)
FLT1 (human) = FLT1 (human) (UniProt P17948)
GCK (human) = GCK (human) (UniProt Q12851)
HIPK1 (human) = HIPK1 (human) (UniProt Q86Z02)
HIPK2 (human) = HIPK2 (human) (UniProt Q9H2X6)
INSR (human) = INSR (human) (UniProt P06213)
Sequence of INSR (human) (P06213 whole entry, looked up): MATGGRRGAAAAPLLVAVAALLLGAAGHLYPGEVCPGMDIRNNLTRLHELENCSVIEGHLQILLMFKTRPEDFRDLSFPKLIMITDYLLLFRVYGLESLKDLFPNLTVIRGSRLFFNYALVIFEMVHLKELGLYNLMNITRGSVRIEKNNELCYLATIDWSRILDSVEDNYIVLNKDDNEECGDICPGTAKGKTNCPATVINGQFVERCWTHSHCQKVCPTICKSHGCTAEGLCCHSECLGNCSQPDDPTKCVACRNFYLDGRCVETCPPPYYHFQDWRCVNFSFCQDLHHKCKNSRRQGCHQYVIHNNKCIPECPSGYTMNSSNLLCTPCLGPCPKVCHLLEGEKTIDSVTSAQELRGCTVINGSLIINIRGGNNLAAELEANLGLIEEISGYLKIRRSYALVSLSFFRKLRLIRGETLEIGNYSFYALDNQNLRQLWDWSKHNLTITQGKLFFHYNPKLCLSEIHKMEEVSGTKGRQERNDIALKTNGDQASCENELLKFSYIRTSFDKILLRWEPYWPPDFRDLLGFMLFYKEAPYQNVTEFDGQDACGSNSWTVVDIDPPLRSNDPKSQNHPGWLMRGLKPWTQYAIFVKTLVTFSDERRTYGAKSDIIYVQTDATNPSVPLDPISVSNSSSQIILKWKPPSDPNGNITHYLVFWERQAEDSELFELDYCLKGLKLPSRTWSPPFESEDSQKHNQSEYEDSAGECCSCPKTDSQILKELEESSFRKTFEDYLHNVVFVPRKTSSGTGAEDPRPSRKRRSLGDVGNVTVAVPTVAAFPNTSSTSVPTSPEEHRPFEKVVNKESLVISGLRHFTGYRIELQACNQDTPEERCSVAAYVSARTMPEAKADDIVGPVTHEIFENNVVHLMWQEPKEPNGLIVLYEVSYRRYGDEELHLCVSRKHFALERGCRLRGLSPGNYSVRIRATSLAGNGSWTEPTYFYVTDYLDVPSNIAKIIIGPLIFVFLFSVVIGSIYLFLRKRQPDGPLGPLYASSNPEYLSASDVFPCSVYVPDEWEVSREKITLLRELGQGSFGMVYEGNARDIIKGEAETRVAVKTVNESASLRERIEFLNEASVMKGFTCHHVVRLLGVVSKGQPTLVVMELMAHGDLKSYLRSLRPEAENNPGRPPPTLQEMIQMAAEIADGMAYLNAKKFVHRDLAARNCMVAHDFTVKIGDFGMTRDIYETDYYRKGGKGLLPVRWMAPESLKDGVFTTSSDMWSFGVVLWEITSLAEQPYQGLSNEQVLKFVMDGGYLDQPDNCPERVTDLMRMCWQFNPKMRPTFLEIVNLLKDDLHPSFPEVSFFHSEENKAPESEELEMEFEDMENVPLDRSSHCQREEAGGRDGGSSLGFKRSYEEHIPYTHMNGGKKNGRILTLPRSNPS

JAK2 JH1 JH2 (human) = JAK2 JH1 JH2 (human) (UniProt O60674); conditions: compound 10.0 µM
MAP2K1 (human) = MAP2K1 (human) (UniProt Q02750); conditions: compound 1.0 µM
MAP3K1 (human) = MAP3K1 (human) (UniProt Q13233)
Sequence of MAP3K1 (human) (Q13233 whole entry, looked up): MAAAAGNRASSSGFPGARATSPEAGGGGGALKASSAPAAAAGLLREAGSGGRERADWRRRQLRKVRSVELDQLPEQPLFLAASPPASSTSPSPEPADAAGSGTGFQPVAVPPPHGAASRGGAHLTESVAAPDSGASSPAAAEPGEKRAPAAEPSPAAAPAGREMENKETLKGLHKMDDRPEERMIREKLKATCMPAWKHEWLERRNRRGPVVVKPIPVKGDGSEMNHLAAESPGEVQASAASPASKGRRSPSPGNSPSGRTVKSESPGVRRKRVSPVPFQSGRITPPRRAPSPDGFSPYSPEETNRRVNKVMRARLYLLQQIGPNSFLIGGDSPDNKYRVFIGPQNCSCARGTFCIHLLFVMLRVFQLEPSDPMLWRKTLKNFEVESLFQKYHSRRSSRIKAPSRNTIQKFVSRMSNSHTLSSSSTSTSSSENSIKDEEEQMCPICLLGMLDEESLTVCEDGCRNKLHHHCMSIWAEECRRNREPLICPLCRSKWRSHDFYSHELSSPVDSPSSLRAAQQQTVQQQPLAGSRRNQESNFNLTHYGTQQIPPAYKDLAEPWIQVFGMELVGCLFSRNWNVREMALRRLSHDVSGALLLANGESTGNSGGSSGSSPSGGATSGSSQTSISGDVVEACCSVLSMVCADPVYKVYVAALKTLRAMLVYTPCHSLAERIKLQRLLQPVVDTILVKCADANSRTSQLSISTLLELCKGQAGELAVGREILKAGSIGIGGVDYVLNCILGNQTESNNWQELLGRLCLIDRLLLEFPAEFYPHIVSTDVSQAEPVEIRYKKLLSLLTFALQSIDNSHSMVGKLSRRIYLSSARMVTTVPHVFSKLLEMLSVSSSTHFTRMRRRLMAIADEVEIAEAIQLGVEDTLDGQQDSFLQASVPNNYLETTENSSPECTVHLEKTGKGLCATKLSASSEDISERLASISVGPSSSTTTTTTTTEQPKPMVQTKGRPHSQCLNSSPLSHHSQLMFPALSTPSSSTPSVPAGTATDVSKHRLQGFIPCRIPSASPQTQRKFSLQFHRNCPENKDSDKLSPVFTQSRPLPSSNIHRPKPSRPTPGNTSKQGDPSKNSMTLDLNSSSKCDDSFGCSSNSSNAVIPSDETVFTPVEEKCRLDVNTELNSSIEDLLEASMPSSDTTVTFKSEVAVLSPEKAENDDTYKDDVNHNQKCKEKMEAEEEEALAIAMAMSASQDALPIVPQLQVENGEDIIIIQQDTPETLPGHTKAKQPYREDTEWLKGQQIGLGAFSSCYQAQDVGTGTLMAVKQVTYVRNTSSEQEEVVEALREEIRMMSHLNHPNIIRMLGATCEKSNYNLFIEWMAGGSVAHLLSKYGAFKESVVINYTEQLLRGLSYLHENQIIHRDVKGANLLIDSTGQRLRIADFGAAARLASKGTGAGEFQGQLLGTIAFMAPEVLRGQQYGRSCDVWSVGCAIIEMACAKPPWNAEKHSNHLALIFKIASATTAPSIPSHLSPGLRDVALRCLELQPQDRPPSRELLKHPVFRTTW

MAP3K11 (human) = MAP3K11 (human) (UniProt Q16584)
MAP3K5 (human) = MAP3K5 (human) (UniProt Q99683); conditions: compound 10.0 µM
MAPK10 (human) = MAPK10 (human) (UniProt P53779)
MAPK11 (human) = MAPK11 (human) (UniProt Q15759)
MAPK8 (human) = MAPK8 (human) (UniProt P45983)
MAPK9 (human) = MAPK9 (human) (UniProt P45984)
MAPKAPK5 (human) = MAPKAPK5 (human) (UniProt Q8IW41)
MARK3 (human) = MARK3 (human) (UniProt P27448)
PIM1 (human) = PIM1 (human) (UniProt P11309)
PRKCA (human) = PRKCA (human) (UniProt P17252)
[2] = test system: RPS6KB1 (human), P23443 [T412E]
STK3 (human) = STK3 (human) (UniProt Q13188)
Sequence of STK3 (human) (Q13188 whole entry, looked up): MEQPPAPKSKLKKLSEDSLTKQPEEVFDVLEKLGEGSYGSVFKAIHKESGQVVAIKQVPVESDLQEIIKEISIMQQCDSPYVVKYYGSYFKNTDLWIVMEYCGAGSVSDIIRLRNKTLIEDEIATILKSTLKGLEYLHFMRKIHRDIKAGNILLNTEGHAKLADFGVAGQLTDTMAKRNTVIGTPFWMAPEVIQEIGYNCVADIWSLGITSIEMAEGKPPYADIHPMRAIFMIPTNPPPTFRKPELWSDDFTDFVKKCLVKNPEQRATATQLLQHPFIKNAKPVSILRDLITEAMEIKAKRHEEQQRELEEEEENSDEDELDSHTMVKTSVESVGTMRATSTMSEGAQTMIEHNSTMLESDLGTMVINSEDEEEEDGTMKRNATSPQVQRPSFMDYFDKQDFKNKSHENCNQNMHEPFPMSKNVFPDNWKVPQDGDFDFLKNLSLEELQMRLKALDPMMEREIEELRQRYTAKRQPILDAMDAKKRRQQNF

SYK (human) = SYK (human) (UniProt P43405)
TAOK1 (human) = TAOK1 (human) (UniProt Q7L7X3)
TBK1 (human) = TBK1 (human) (UniProt Q9UHD2); conditions: compound 1.0 µM
YES1 (human) = YES1 (human) (UniProt P07947); conditions: compound 1.0 µM

Cc1nc(-c2ccc(OCC(C)C)c(C#N)c2)sc1C(=O)O
residual activity ([1]; compound 1.0 µM): 97% | residual activity ([1]; compound 10.0 µM): 95% | residual activity (AURKA (human)): 94% | residual activity (BRSK1 (human); compound 1.0 µM): 94% | residual activity (BRSK1 (human); compound 10.0 µM): 91% | residual activity (BRSK2 (human); compound 1.0 µM): 100% | residual activity (BRSK2 (human); compound 10.0 µM): 86% | residual activity (BTK (human); compound 1.0 µM): 103% | residual activity (BTK (human); compound 10.0 µM): 101% | residual activity (CaMK1 (human); compound 1.0 µM): 98% | residual activity (CaMK1 (human); compound 10.0 µM): 93% | residual activity (DYRK2 (human); compound 1.0 µM): 95% | residual activity (DYRK2 (human); compound 10.0 µM): 83% | residual activity (DYRK3 (human); compound 1.0 µM): 84% | residual activity (DYRK3 (human); compound 10.0 µM): 65% | residual activity (EPHA2 (human); compound 1.0 µM): 104% | residual activity (EPHA2 (human); compound 10.0 µM): 89% | residual activity (EPHB1 (human); compound 1.0 µM): 118% | residual activity (EPHB1 (human); compound 10.0 µM): 103% | residual activity (EPHB2 (human); compound 1.0 µM): 122% | residual activity (EPHB2 (human); compound 10.0 µM): 102% | residual activity (EPHB4 (human); compound 1.0 µM): 93% | residual activity (EPHB4 (human); compound 10.0 µM): 79% | residual activity (FLT1 (human); compound 1.0 µM): 83% | residual activity (FLT1 (human); compound 10.0 µM): 71% | residual activity (GCK (human); compound 1.0 µM): 85% | residual activity (GCK (human); compound 10.0 µM): 86% | residual activity (HIPK1 (human); compound 1.0 µM): 90% | residual activity (HIPK1 (human); compound 10.0 µM): 95% | residual activity (HIPK2 (human); compound 1.0 µM): 100% | residual activity (HIPK2 (human); compound 10.0 µM): 98% | residual activity (INSR (human); compound 1.0 µM): 102% | residual activity (INSR (human); compound 10.0 µM): 96% | residual activity (JAK2 JH1 JH2 (human)): 83% | residual activity (MAP2K1 (human)): 85% | residual activity (MAP3K1 (human); compound 1.0 µM): 106% | residual activity (MAP3K1 (human); compound 10.0 µM): 96% | residual activity (MAP3K11 (human); compound 1.0 µM): 80% | residual activity (MAP3K11 (human); compound 10.0 µM): 47% | residual activity (MAP3K5 (human)): 127% | residual activity (MAPK10 (human); compound 1.0 µM): 99% | residual activity (MAPK10 (human); compound 10.0 µM): 92% | residual activity (MAPK11 (human); compound 1.0 µM): 84% | residual activity (MAPK11 (human); compound 10.0 µM): 91% | residual activity (MAPK8 (human); compound 1.0 µM): 95% | residual activity (MAPK8 (human); compound 10.0 µM): 103% | residual activity (MAPK9 (human); compound 1.0 µM): 90% | residual activity (MAPK9 (human); compound 10.0 µM): 86% | residual activity (MAPKAPK5 (human); compound 1.0 µM): 87% | residual activity (MAPKAPK5 (human); compound 10.0 µM): 82% | residual activity (MARK3 (human); compound 1.0 µM): 91% | residual activity (MARK3 (human); compound 10.0 µM): 87% | residual activity (PIM1 (human); compound 1.0 µM): 83% | residual activity (PIM1 (human); compound 10.0 µM): 66% | residual activity (PRKCA (human); compound 1.0 µM): 94% | residual activity (PRKCA (human); compound 10.0 µM): 92% | residual activity ([2]; compound 1.0 µM): 99% | residual activity ([2]; compound 10.0 µM): 99% | residual activity (STK3 (human); compound 1.0 µM): 73% | residual activity (STK3 (human); compound 10.0 µM): 75% | residual activity (SYK (human); compound 1.0 µM): 158% | residual activity (SYK (human); compound 10.0 µM): 117% | residual activity (TAOK1 (human); compound 1.0 µM): 105% | residual activity (TAOK1 (human); compound 10.0 µM): 101% | residual activity (TBK1 (human)): 127% | residual activity (YES1 (human)): 117%
